# Test results as given in ChEMBL document CHEMBL1268920, “Design and synthesis of aminohydantoins as potent and selective human β-secretase (BACE1) inhibitors with enhanced brain permeability” (Bioorg Med Chem Lett, 2010).
# Tested on: not listed separately
# Assay: Ratio of AUC in brain to plasma in Tg2576 mouse
# Format: ADME
# Details: brain and plasma, read-out: Ratio AUC
row,SMILES,Kp
1,CN1C(=O)C(c2ccccc2)(c2ccccc2)N=C1N,0.8
2,COc1ccc([C@]2(c3ccc(F)c(-c4cccnc4F)c3)N=C(N)N(C)C2=O)cc1C,0.1
3,CN1C(=O)[C@@](c2ccc(OC(F)(F)F)cc2)(c2ccc(F)c(-c3cncnc3)c2)N=C1N,0.1
4,NC1=NC(c2ccccc2)(c2ccccc2)C2=NCCCN12,1

# Tested on: Brain
# Assay: Permeability across brain in Tg2576 mouse at 100 mg/kg, po
# Format: ADME, organism-based
# Parameters: dose 100 mg/kg, route oral
# Details: in vivo
row,SMILES,permeability
1,CN1C(=O)C(c2ccccc2)(c2ccccc2)N=C1N,81%
2,COc1ccc([C@]2(c3cccc(-c4cccnc4OC)c3)N=C(N)N(C)C2=O)cc1C,7%
3,CN1C(=O)[C@@](c2ccc(OC(F)(F)F)cc2)(c2cccc(-c3cccnc3)c2)N=C1N,10%
4,CN1C(=O)[C@@](c2ccc(OC(F)F)cc2)(c2cccc(-c3cc(F)cnc3F)c2)N=C1N,9%
5,COc1ccc([C@]2(c3cccc(-c4cccnc4F)c3)N=C(N)N(C)C2=O)cc1C,10%
6,COc1ccc([C@]2(c3cccc(-c4cncnc4)c3)N=C(N)N(C)C2=O)cc1C,5%
7,CN1C(=O)[C@](c2ccccc2)(c2ccc(OC(F)F)cc2)N=C1N,90%
8,CN1C(=O)[C@@](c2ccc(OC(F)(F)F)cc2)(c2cccc(-c3cccnc3F)c2)N=C1N,10%
9,CN1C(=O)[C@@](c2ccc(OC(F)F)cc2)(c2cccc(-c3cccnc3F)c2)N=C1N,9%
10,COc1ccc([C@]2(c3cccc(-c4cccnc4)c3)N=C(N)N(C)C2=O)cc1C,15%
